Some test systems named below: A498 renal; COLO 205 colon; EKVX NSCLC; MALME-3M melanoma; OVCAR-8 ovarian; RXF 393 renal; SF-539 CNS; SK-OV-3 ovarian; UACC-62 melanoma; OVCAR-5 ovarian.
What all share (assay): DTP human tumour cell line panel, 48 h

Where “and” joins values, the source holds several entries; their conditions need not be identical. Identical values can stand only once.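 Growth conditions: 96-well plates. Treatment: test compound, 48 hours, 5 concentrations. Analysis: linear interpolation between bracketing concentrations; unreached endpoints set to highest concentration. GI50 is the concentration that inhibits growth by half. The concentration for full growth arrest is given as TGI.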

The GI50 is the concentration at which growth is held to half of that of the control. By TGI is commonly meant the concentration giving total growth inhibition. Read a low TGI as more potent growth arrest.

With `Nc1ccc(-c2cccs2)cc1NC(=O)c1ccc(CCCC(=O)Nc2ccc(C3CC3N)cc2)cc1` (configuration not stated), the GI50 was 20.4 µM in the assay on A498 renal; 2.44 µM in the assay on COLO 205 colon; 3.5 µM in the assay with EKVX NSCLC; 1.06 µM with MALME-3M melanoma; 1.65 µM in the assay with OVCAR-8 ovarian; 2.45 µM in the assay with RXF 393 renal. Moreover, the GI50 in the assay with SF-539 CNS was 2.42 µM; in the assay on SK-OV-3 ovarian, 4.37 µM; with UACC-62 melanoma, 1.28 µM. The TGI was 92 µM in the assay with A498 renal; greater than 100 µM in the assay on COLO 205 colon; greater than 100 µM with EKVX NSCLC; 3.77 µM in the assay with MALME-3M melanoma; 4.48 µM in the assay on OVCAR-8 ovarian; 30 µM in the assay on RXF 393 renal. Further, the TGI in the assay on SF-539 CNS is 7.94 µM; in the assay on SK-OV-3 ovarian, 37.1 µM; in the assay with UACC-62 melanoma it was 5.47 µM.
As to `Oc1ccc(C2c3ccccc3Oc3ccccc32)c2cccnc12`, the GI50 was 1.74 µM in the assay on A498 renal; 3.18 µM in the assay with COLO 205 colon; 2 µM with EKVX NSCLC; 2.83 µM in the assay with MALME-3M melanoma; 1.6 µM in the assay on OVCAR-8 ovarian; 1.68 µM in the assay with RXF 393 renal. The GI50 is 2.53 µM in the assay on SF-539 CNS, 1.75 µM in the assay on SK-OV-3 ovarian and 1.88 µM in the assay on UACC-62 melanoma. In addition, the TGI in the assay on A498 renal is 64.4 µM; in the assay on COLO 205 colon, greater than 100 µM; in the assay on EKVX NSCLC it was greater than 100 µM; in the assay on MALME-3M melanoma, 27.4 µM; with OVCAR-8 ovarian, greater than 100 µM; in the assay on RXF 393 renal, 7.1 µM. The TGI was 25.5 µM with SF-539 CNS, greater than 100 µM in the assay on SK-OV-3 ovarian and 8.07 µM in the assay on UACC-62 melanoma.
As to `CCn1c(-c2nonc2N)nc2c(C#CC(C)(C)O)ncc(OC[C@H]3CCCNC3)c21`, the GI50 in the assay on A498 renal was 0.0469 µM; with COLO 205 colon, 9.75 µM; with MALME-3M melanoma, 13.4 µM; in the assay on OVCAR-5 ovarian it was 27.6 µM; in the assay on OVCAR-8 ovarian it was 16.1 µM; with RXF 393 renal, 0.228 µM. The GI50 in the assay with SF-539 CNS was 0.313 µM; with SK-OV-3 ovarian, 0.866 µM; in the assay on UACC-62 melanoma, 12.9 µM. Also, the TGI in the assay on A498 renal came to 0.584 µM; in the assay on COLO 205 colon, 26.3 µM; in the assay with MALME-3M melanoma it was 30.1 µM; in the assay on OVCAR-5 ovarian, 58.4 µM; in the assay with OVCAR-8 ovarian it was 82.2 µM; with RXF 393 renal, 11.6 µM. For the same molecule, the TGI in the assay with SF-539 CNS was 16.9 µM; in the assay on SK-OV-3 ovarian it was greater than 82.6 µM; in the assay on UACC-62 melanoma, 28.2 µM.
Turning to `C/C(O)=C(\C#N)C(=O)Nc1ccc(C(F)(F)F)cc1`, the GI50 with A498 renal was 1.36 µM; in the assay with COLO 205 colon, 47.3 µM; in the assay with MALME-3M melanoma, 62.8 µM; in the assay with OVCAR-5 ovarian, greater than 100 µM; in the assay on OVCAR-8 ovarian, 13.5 µM; in the assay on RXF 393 renal, 18.6 µM. The figures for the GI50 in the assay with SF-539 CNS, with SK-OV-3 ovarian and with UACC-62 melanoma were 16 µM, 94.5 µM and 15.6 µM, respectively. Moreover, the TGI in the assay with A498 renal was 52.9 µM; in the assay with COLO 205 colon it was greater than 100 µM; in the assay on MALME-3M melanoma, greater than 100 µM; in the assay with OVCAR-5 ovarian, greater than 100 µM; with OVCAR-8 ovarian, greater than 100 µM; with RXF 393 renal it was greater than 100 µM. Further, the TGI in the assay with SF-539 CNS, in the assay on SK-OV-3 ovarian and in the assay with UACC-62 melanoma was greater than 100 µM each time.
As for `CC1=C(O)/C(=C/C(C)CCC/C(C)=C/C=C/C(C)CCCc2ccoc2)OC1=O` (configuration not stated), the TGI in the assay with COLO 205 colon is greater than 100 µM; with EKVX NSCLC, 67.1 µM; in the assay on MALME-3M melanoma, 49.4 µM; in the assay with OVCAR-5 ovarian, 69.3 µM; in the assay on OVCAR-8 ovarian, greater than 100 µM; with RXF 393 renal it was greater than 100 µM. This molecule also showed a TGI in the assay with SF-539 CNS greater than 100 µM.
Regarding `Cc1cccc2c1CCC21OC(=O)c2c1ccc1ccccc21` (configuration not stated), the TGI in the assay with A498 renal was 53.4 µM; in the assay on COLO 205 colon it was greater than 100 µM; with EKVX NSCLC, greater than 100 µM; in the assay on MALME-3M melanoma, 75.5 µM; with OVCAR-5 ovarian, greater than 100 µM; with OVCAR-8 ovarian, greater than 100 µM. Further, the TGI with RXF 393 renal, in the assay on SK-OV-3 ovarian and in the assay with UACC-62 melanoma was greater than 100 µM in each case.
Turning to `COc1ccc2c(c1)C(=O)/C(=C/c1ccc([N+](=O)[O-])o1)O2`, the GI50 was 1.64 µM in the assay with A498 renal; 1.3 µM with COLO 205 colon; 1.61 µM in the assay on MALME-3M melanoma; 1.8 µM with OVCAR-5 ovarian; 1.21 µM with OVCAR-8 ovarian; 1.39 µM in the assay on RXF 393 renal. Moreover, the GI50 in the assay on SF-539 CNS is 1.76 µM; with SK-OV-3 ovarian it was 5.36 µM; with UACC-62 melanoma, 1.36 µM. For the same molecule, the TGI in the assay on A498 renal was found to be 4.12 µM; with COLO 205 colon, 2.74 µM; with MALME-3M melanoma, 3.48 µM; in the assay on OVCAR-5 ovarian, 3.64 µM; in the assay on OVCAR-8 ovarian, 5.4 µM; in the assay on RXF 393 renal it was 3.05 µM. The results for the TGI with SF-539 CNS, with SK-OV-3 ovarian and in the assay on UACC-62 melanoma were 3.91 µM, greater than 29.9 µM and 2.91 µM, respectively.
As to `CCOC(=O)c1cc(-c2ccccc2)[nH]c1N/N=C/c1ccc(Cl)cc1`, the GI50 in the assay on COLO 205 colon is 42.5 µM; in the assay with EKVX NSCLC, 36 µM; in the assay with MALME-3M melanoma, greater than 100 µM; in the assay on OVCAR-5 ovarian, greater than 100 µM; with OVCAR-8 ovarian, greater than 100 µM; in the assay with RXF 393 renal, greater than 100 µM. The GI50 in the assay on SF-539 CNS was greater than 100 µM; with SK-OV-3 ovarian it was greater than 100 µM; in the assay with UACC-62 melanoma, 49.7 µM. Besides, the TGI with COLO 205 colon, with EKVX NSCLC, in the assay with MALME-3M melanoma, in the assay with OVCAR-5 ovarian, in the assay on OVCAR-8 ovarian and in the assay with RXF 393 renal was greater than 100 µM each time. The TGI with SF-539 CNS, in the assay on SK-OV-3 ovarian and with UACC-62 melanoma was greater than 100 µM throughout.
As for `CCOC(=O)C#Cc1c(C(=O)OCC)nnn1Cc1ccc([N+](=O)[O-])cc1`, the GI50 was 15.2 µM in the assay with A498 renal; 1.97 µM in the assay on COLO 205 colon; 16.4 µM with EKVX NSCLC; 1.99 µM with MALME-3M melanoma; 8.34 µM in the assay with OVCAR-5 ovarian; 3.72 µM with OVCAR-8 ovarian. Moreover, the figures for the GI50 with RXF 393 renal, in the assay with SK-OV-3 ovarian and with UACC-62 melanoma were 1.89 µM, 21.9 µM and 1.83 µM, respectively. Moreover, the TGI in the assay with A498 renal is 28.5 µM; in the assay with COLO 205 colon it was 3.79 µM; with EKVX NSCLC, 32.9 µM; in the assay with MALME-3M melanoma it was 4.29 µM; in the assay with OVCAR-5 ovarian it was 22.7 µM; in the assay on OVCAR-8 ovarian, 11.1 µM. Further, the TGI in the assay on RXF 393 renal amounted to 3.52 µM; with SK-OV-3 ovarian it was 51.1 µM; in the assay on UACC-62 melanoma, 4.42 µM.
Turning to `C=C1C(=O)O[C@H]2[C@H]1CC/C(COC(=O)C(C)c1ccc(CC(C)C)cc1)=C\CC[C@@]1(C)O[C@@H]21` (some centres not stated), the GI50 with COLO 205 colon is 1.91 µM; in the assay on EKVX NSCLC, 1.75 µM; with MALME-3M melanoma, 1.56 µM; in the assay on OVCAR-5 ovarian, 1.8 µM; in the assay with OVCAR-8 ovarian, 1.32 µM; in the assay with RXF 393 renal it was 1.38 µM. Moreover, the GI50 with SF-539 CNS is 1.6 µM; with SK-OV-3 ovarian, 9.7 µM; in the assay with UACC-62 melanoma it was 1.48 µM. In addition, the TGI in the assay with COLO 205 colon amounted to 4.1 µM; with EKVX NSCLC, 3.35 µM; in the assay with MALME-3M melanoma, 2.99 µM; with OVCAR-5 ovarian, 3.46 µM; in the assay with OVCAR-8 ovarian, 3.51 µM; in the assay on RXF 393 renal, 2.75 µM. Moreover, the TGI was determined as 2.97 µM with SF-539 CNS, 21.4 µM in the assay with SK-OV-3 ovarian and 2.85 µM with UACC-62 melanoma.
Turning to `CC(C)=CCC/C(C)=C\CCC1(C)OC(=O)C2CC21` (configuration not stated), the TGI was greater than 100 µM with A498 renal; greater than 100 µM with COLO 205 colon; greater than 100 µM in the assay on EKVX NSCLC; greater than 100 µM in the assay on MALME-3M melanoma; greater than 100 µM in the assay on OVCAR-5 ovarian; > 100 µM and 45.5 µM with OVCAR-8 ovarian. Besides, the TGI in the assay on RXF 393 renal was 92.3 µM; in the assay with UACC-62 melanoma it was greater than 100 µM. Further, the GI50 in the assay with EKVX NSCLC was > 100 µM and 40 µM; in the assay with OVCAR-8 ovarian, 71.6 µM and 20.3 µM; in the assay on UACC-62 melanoma, > 100 µM and 34.4 µM.
Regarding `OCCNc1nc(Nc2ccc(Cl)c(Cl)c2)nc2ccccc12`, the GI50 with A498 renal is 1.5 µM; in the assay on COLO 205 colon, 1.6 µM; with MALME-3M melanoma, 4.97 µM; in the assay with OVCAR-5 ovarian, 2.21 µM; in the assay with OVCAR-8 ovarian, 4.79 µM; in the assay on RXF 393 renal, 4.45 µM. In addition, the GI50 in the assay with SF-539 CNS is 5.68 µM; with SK-OV-3 ovarian, 11 µM; with UACC-62 melanoma, 10.9 µM. The TGI stood at 13.9 µM in the assay with A498 renal; 3.07 µM in the assay with COLO 205 colon; 17.5 µM in the assay with MALME-3M melanoma; 6.22 µM with OVCAR-5 ovarian; 17.6 µM in the assay on OVCAR-8 ovarian; 18.4 µM in the assay on RXF 393 renal. Also, the TGI in the assay on SF-539 CNS turned out to be 20.6 µM; in the assay with SK-OV-3 ovarian, 23.4 µM; in the assay on UACC-62 melanoma, 23.5 µM.
Turning to `CC(=O)O[C@H](C[C@H](C(C)C)N(C)C(=O)[C@@H](NC(=O)[C@H]1CCCN1C)C(C)C)c1nc(C(=O)N[C@@H](Cc2ccccc2)C[C@H](C)C(=O)O)c(C)s1`, the GI50 was less than 0.00167 µM with A498 renal; 0.00197 µM in the assay with COLO 205 colon; 0.0044 µM with EKVX NSCLC; 0.00716 µM in the assay with OVCAR-5 ovarian; 0.0033 µM with OVCAR-8 ovarian; less than 0.00167 µM in the assay with RXF 393 renal. Further, the figures for the GI50 in the assay on SF-539 CNS, in the assay with SK-OV-3 ovarian and in the assay on UACC-62 melanoma were less than 0.00167 µM, 0.00203 µM and less than 0.00167 µM, respectively. For the same molecule, the concentration for total growth inhibition (TGI) is 0.00956 µM in the assay with A498 renal; 0.0255 µM with COLO 205 colon; greater than 16.7 µM with EKVX NSCLC; greater than 16.7 µM in the assay on OVCAR-5 ovarian; greater than 16.7 µM with OVCAR-8 ovarian; greater than 16.7 µM in the assay on RXF 393 renal. Further, the results for the TGI in the assay with SF-539 CNS, in the assay on SK-OV-3 ovarian and in the assay on UACC-62 melanoma were 0.0256 µM, greater than 16.7 µM and greater than 16.7 µM, respectively.

Source of the values: PubChem BioAssay (NCI).
